According to article PMC5218480 (PLoS ONE, 2017):

Tested on: MV-4-11 cells
Experiment: Gene expression microarray analysis (Affymetrix PrimeView) and GSEA
Assay type: cell-based, human
Set-up: RFU PODN (11730768_x_at) / Fold change /veh PODN (11730768_x_at) / RFU LINC00158 (11744669_a_at) / Fold change /veh LINC00158 (11744669_a_at) / RFU DUSP10 (11751237_a_at) / Fold change /veh DUSP10 (11751237_a_at) / RFU ID3 (11757404_x_at) / Fold change /veh ID3 (11757404_x_at) / RFU PLEKHG5 (11737974_s_at) / Fold change /veh PLEKHG5 (11737974_s_at) / RFU LRRC4B (11730491_at) / Fold change /veh LRRC4B (11730491_at) / RFU GIMAP4 (11747438_a_at) / Fold change /veh GIMAP4 (11747438_a_at) / RFU KRT8 (11758183_x_at) / Fold change /veh KRT8 (11758183_x_at) / RFU CNN1 (11734310_a_at) / Fold change /veh CNN1 (11734310_a_at) / RFU VPS37D (11726825_at) / Fold change /veh VPS37D (11726825_at) / RFU C10orf10 (11716522_x_at) / Fold change /veh C10orf10 (11716522_x_at) / RFU KIR2DL2 /// KIR2DL4 /// KIR2DL5A /// KIR2DL5B /// KIR2DS1 /// KIR2DS2 /// KIR2DS3 /// KIR2DS4 /// KIR3DL3 /// KIR3DL3 /// KIR3DS1 (11738374_at) / Fold change /veh KIR2DL2 /// KIR2DL4 /// KIR2DL5A /// KIR2DL5B /// KIR2DS1 /// KIR2DS2 /// KIR2DS3 /// KIR2DS4 /// KIR3DL3 /// KIR3DL3 /// KIR3DS1 (11738374_at) / RFU C1QL1 (11718748_at) / Fold change /veh C1QL1 (11718748_at) / RFU TMPRSS4 (11747572_a_at) / Fold change /veh TMPRSS4 (11747572_a_at) / RFU HAMP (11756126_x_at) / Fold change /veh HAMP (11756126_x_at) / RFU RNFT2 (11725882_a_at) / Fold change /veh RNFT2 (11725882_a_at) / RFU NR4A2 (11747474_a_at) / Fold change /veh NR4A2 (11747474_a_at) / RFU ABCC12 (11746883_a_at) / Fold change /veh ABCC12 (11746883_a_at) / RFU TMEM136 (11760407_x_at) / Fold change /veh TMEM136 (11760407_x_at) / RFU CLDN22 /// WWC2 (11732394_at) / Fold change /veh CLDN22 /// WWC2 (11732394_at) / RFU HLA-DPB1 (11760878_x_at) / Fold change /veh HLA-DPB1 (11760878_x_at) / RFU SPINT1 (11716480_a_at) / Fold change /veh SPINT1 (11716480_a_at) / RFU GAP43 (11754022_s_at) / Fold change /veh GAP43 (11754022_s_at) / RFU A4GNT (11735810_at) / Fold change /veh A4GNT (11735810_at) / RFU PRB3 (11715151_x_at) / Fold change /veh PRB3 (11715151_x_at) / RFU TUBB4B (11761932_at) / Fold change /veh TUBB4B (11761932_at) / RFU CAPN14 (11732068_a_at) / Fold change /veh CAPN14 (11732068_a_at) / RFU TMCC2 (11721928_a_at) / Fold change /veh TMCC2 (11721928_a_at) / RFU IRGQ (11745062_a_at) / Fold change /veh IRGQ (11745062_a_at) / RFU FAM174B (11720279_a_at) / Fold change /veh FAM174B (11720279_a_at) / RFU TMPRSS4 (11748680_a_at) / Fold change /veh TMPRSS4 (11748680_a_at) / RFU FAM212B (11763350_a_at) / Fold change /veh FAM212B (11763350_a_at) / RFU PLEKHG5 (11743358_a_at) / Fold change /veh PLEKHG5 (11743358_a_at) / RFU ZSCAN30 (11745921_a_at) / Fold change /veh ZSCAN30 (11745921_a_at) / RFU CMKLR1 (11741424_a_at) / Fold change /veh CMKLR1 (11741424_a_at) / RFU LOC101060620 /// MAPK8IP1 (11723275_at) / Fold change /veh LOC101060620 /// MAPK8IP1 (11723275_at) / RFU SPTSSB (11747773_x_at) / Fold change /veh SPTSSB (11747773_x_at) / RFU PRSS12 (11739890_at) / Fold change /veh PRSS12 (11739890_at) / RFU BIN1 (11741810_x_at) / Fold change /veh BIN1 (11741810_x_at) / RFU WNT11 (11732464_a_at) / Fold change /veh WNT11 (11732464_a_at) / RFU C10orf10 (11716521_a_at) / Fold change /veh C10orf10 (11716521_a_at) / RFU C5orf56 (11738089_at) / Fold change /veh C5orf56 (11738089_at) / RFU CYB561 (11721691_x_at) / Fold change /veh CYB561 (11721691_x_at) / RFU ANKRD19P (11752326_a_at) / Fold change /veh ANKRD19P (11752326_a_at) / RFU OR2T12 /// OR2T33 /// OR2T8 (11738714_s_at) / Fold change /veh OR2T12 /// OR2T33 /// OR2T8 (11738714_s_at) / RFU VCAN (11748164_a_at) / Fold change /veh VCAN (11748164_a_at) / RFU JSRP1 (11732532_at) / Fold change /veh JSRP1 (11732532_at) / RFU KRTAP10-11 (11738290_x_at) / Fold change /veh KRTAP10-11 (11738290_x_at) / RFU MYO3A (11730013_a_at) / Fold change /veh MYO3A (11730013_a_at) / RFU EBF3 (11725865_a_at) / Fold change /veh EBF3 (11725865_a_at) / RFU CAMK2N1 (11719241_x_at) / Fold change /veh CAMK2N1 (11719241_x_at) / RFU C5orf56 (11738088_a_at) / Fold change /veh C5orf56 (11738088_a_at) / RFU OLFML3 (11715873_a_at) / Fold change /veh OLFML3 (11715873_a_at) / RFU LOC100653217 /// NTM (11731650_a_at) / Fold change /veh LOC100653217 /// NTM (11731650_a_at) / RFU MAPK11 (11762145_a_at) / Fold change /veh MAPK11 (11762145_a_at) / RFU FIZ1 (11724087_x_at) / Fold change /veh FIZ1 (11724087_x_at) / RFU OASL (11726364_x_at) / Fold change /veh OASL (11726364_x_at) / RFU SOX15 (11748057_x_at) / Fold change /veh SOX15 (11748057_x_at) / RFU CD79A (11719716_a_at) / Fold change /veh CD79A (11719716_a_at) / RFU HIST1H1D (11736915_at) / Fold change /veh HIST1H1D (11736915_at) / RFU CASKIN2 (11723855_a_at) / Fold change /veh CASKIN2 (11723855_a_at) / RFU LOC730098 (11760151_x_at) / Fold change /veh LOC730098 (11760151_x_at) / RFU OR4N2 (11742367_at) / Fold change /veh OR4N2 (11742367_at) / RFU PRRT2 (11749266_a_at) / Fold change /veh PRRT2 (11749266_a_at) / RFU SNX32 (11753110_a_at) / Fold change /veh SNX32 (11753110_a_at) / RFU CDHR5 (11726645_a_at) / Fold change /veh CDHR5 (11726645_a_at) / RFU RCAN1 (11760418_a_at) / Fold change /veh RCAN1 (11760418_a_at) / RFU FAM167A (11723789_a_at) / Fold change /veh FAM167A (11723789_a_at) / RFU FAM26E (11764081_at) / Fold change /veh FAM26E (11764081_at) / RFU ISYNA1 (11749810_s_at) / Fold change /veh ISYNA1 (11749810_s_at) / RFU ACY1 (11761880_at) / Fold change /veh ACY1 (11761880_at) / RFU 11764098_at / Fold change /veh 11764098_at / RFU SAMD14 (11745864_x_at) / Fold change /veh SAMD14 (11745864_x_at) / RFU NPB (11741838_a_at) / Fold change /veh NPB (11741838_a_at) / RFU TMPRSS6 (11731388_a_at) / Fold change /veh TMPRSS6 (11731388_a_at) / RFU KRTAP10-2 (11738614_at) / Fold change /veh KRTAP10-2 (11738614_at) / RFU ARHGAP8 /// PRR5-ARHGAP8 (11727945_x_at) / Fold change /veh ARHGAP8 /// PRR5-ARHGAP8 (11727945_x_at) / RFU KRTAP5-7 /// NADSYN1 (11734609_at) / Fold change /veh KRTAP5-7 /// NADSYN1 (11734609_at) / RFU RASL12 (11751679_a_at) / Fold change /veh RASL12 (11751679_a_at) / RFU CDKN2B (11736163_a_at) / Fold change /veh CDKN2B (11736163_a_at) / RFU PRF1 (11729649_at) / Fold change /veh PRF1 (11729649_at) / RFU, ZNF638 /// ZNF638-IT1 / Fold change vs veh, ZNF638 /// ZNF638-IT1 / RFU, PANK3 / Fold change vs veh, PANK3 / RFU, SH3YL1 / Fold change vs veh, SH3YL1 / RFU, ZEB2 / Fold change vs veh, ZEB2 / RFU, NRIP1 / Fold change vs veh, NRIP1 / RFU, PTTG1IP / Fold change vs veh, PTTG1IP / RFU, CAPN2 / Fold change vs veh, CAPN2 / RFU, MED14 / Fold change vs veh, MED14 / RFU, SNORA58 / Fold change vs veh, SNORA58 / RFU, C1orf63 / Fold change vs veh, C1orf63 / RFU, LRRFIP1 / Fold change vs veh, LRRFIP1 / RFU, NDUFAF7 / Fold change vs veh, NDUFAF7 / RFU, SLC12A2 / Fold change vs veh, SLC12A2 / RFU, IBTK / Fold change vs veh, IBTK / RFU, ESF1 / Fold change vs veh, ESF1 / Fold change vs veh, TMEM50B / RFU, TAOK1 / Fold change vs veh, TAOK1 / RFU, ACBD3 / Fold change vs veh, ACBD3 / RFU, TMA16 / Fold change vs veh, TMA16 / RFU, RWDD3 / Fold change vs veh, RWDD3 / RFU, BCAT1 / Fold change vs veh, BCAT1 / RFU, EDEM3 / Fold change vs veh, EDEM3 / RFU, TMEM33 / Fold change vs veh, TMEM33 / RFU, WDR75 / Fold change vs veh, WDR75 / RFU, AHCTF1 / Fold change vs veh, AHCTF1 / RFU, TFRC / Fold change vs veh, TFRC / RFU, ZDHHC17 / Fold change vs veh, ZDHHC17 / RFU, NOM1 / Fold change vs veh, NOM1 / RFU, ARL8B / Fold change vs veh, ARL8B / RFU, ZBTB11 / Fold change vs veh, ZBTB11 / RFU, TAMM41 / Fold change vs veh, TAMM41 / RFU, KIAA1704 /// LOC100996395 / Fold change vs veh, KIAA1704 /// LOC100996395 / RFU, ING1 / Fold change vs veh, ING1 / RFU, TRMT61B / Fold change vs veh, TRMT61B / RFU, FUBP3 / Fold change vs veh, FUBP3 / RFU, TP53 / Fold change vs veh, TP53 / RFU, TNKS2 / Fold change vs veh, TNKS2 / RFU, ZFP14 / Fold change vs veh, ZFP14 / RFU, ACTR2 / Fold change vs veh, ACTR2 / RFU, PPP3R1 / Fold change vs veh, PPP3R1 / RFU, PIK3R1 / Fold change vs veh, PIK3R1 / RFU, HNRNPA1 / Fold change vs veh, HNRNPA1 / RFU, RNF170 / Fold change vs veh, RNF170 / RFU, ZNF28 / Fold change vs veh, ZNF28 / RFU, RNGTT / Fold change vs veh, RNGTT / RFU, OGT / Fold change vs veh, OGT / RFU, BRD1 / Fold change vs veh, BRD1 / RFU, MARS / Fold change vs veh, MARS / RFU, ZNF655 / Fold change vs veh, ZNF655 / RFU, FAHD1 / Fold change vs veh, FAHD1 / RFU, BDP1 / Fold change vs veh, BDP1 / RFU, LRRCC1 / Fold change vs veh, LRRCC1 / RFU, ARID1A / Fold change vs veh, ARID1A / RFU, ZNF146 / Fold change vs veh, ZNF146 / RFU, ZNF330 / Fold change vs veh, ZNF330 / RFU, GPN3 / Fold change vs veh, GPN3 / RFU, C9orf123 / Fold change vs veh, C9orf123 / RFU, N4BP2L2 / Fold change vs veh, N4BP2L2 / RFU, ARFIP1 / Fold change vs veh, ARFIP1 / RFU, FAM179B / Fold change vs veh, FAM179B / RFU, BCL10 / Fold change vs veh, BCL10 / RFU, UHRF1BP1L / Fold change vs veh, UHRF1BP1L / RFU, BET1 / Fold change vs veh, BET1 / RFU, CNOT2 / Fold change vs veh, CNOT2 / RFU, ZNF268 / Fold change vs veh, ZNF268 / Fold change vs veh, ZNF507 / RFU, DGCR2 / Fold change vs veh, DGCR2 / RFU, WDSUB1 / Fold change vs veh, WDSUB1 / Fold change vs veh, HSP90B1 /// MIR3652 / RFU, ADSS / Fold change vs veh, ADSS / RFU, GK / Fold change vs veh, GK / RFU, ZNF148 / Fold change vs veh, ZNF148 / RFU, TAF9 / Fold change vs veh, TAF9 / RFU, SLC1A5 / Fold change vs veh, SLC1A5 / RFU, SLMO2 / Fold change vs veh, SLMO2 / RFU, ABCC4 / Fold change vs veh, ABCC4 / RFU, LOC101060439 /// RAP1B / Fold change vs veh, LOC101060439 /// RAP1B / RFU, RFX7 / Fold change vs veh, RFX7 / RFU, GTPBP10 / Fold change vs veh, GTPBP10 / RFU, CNEP1R1 / Fold change vs veh, CNEP1R1 / RFU, BIVM-ERCC5 /// ERCC5 / Fold change vs veh, BIVM-ERCC5 /// ERCC5 / RFU, ILF3 / Fold change vs veh, ILF3 / RFU 11762660_at / Fold change /veh 11762660_at / RFU VCAN (11757783_s_at) / Fold change /veh VCAN (11757783_s_at) / RFU DDX43 (11728927_at) / Fold change /veh DDX43 (11728927_at) / RFU KRT8 (11758188_x_at) / Fold change /veh KRT8 (11758188_x_at) / RFU NKD1 (11759106_at) / Fold change /veh NKD1 (11759106_at) / RFU SRD5A1 (11742802_a_at) / Fold change /veh SRD5A1 (11742802_a_at) / RFU TPSAB1 /// TPSB2 (11721975_s_at) / Fold change /veh TPSAB1 /// TPSB2 (11721975_s_at) / RFU GSTM3 (11746129_a_at) / Fold change /veh GSTM3 (11746129_a_at) / RFU IL23R (11737362_x_at) / Fold change /veh IL23R (11737362_x_at) / RFU TMEM51 (11727254_a_at) / Fold change /veh TMEM51 (11727254_a_at) / RFU PIWIL2 (11732686_x_at) / Fold change /veh PIWIL2 (11732686_x_at) / RFU ORM1 (11744905_x_at) / Fold change /veh ORM1 (11744905_x_at) / RFU CCDC152 (11743942_at) / Fold change /veh CCDC152 (11743942_at) / RFU ECM1 (11717891_a_at) / Fold change /veh ECM1 (11717891_a_at) / RFU IL23R (11748794_a_at) / Fold change /veh IL23R (11748794_a_at) / RFU TNFAIP8L3 (11732012_x_at) / Fold change /veh TNFAIP8L3 (11732012_x_at) / RFU MBOAT4 (11741988_at) / Fold change /veh MBOAT4 (11741988_at) / RFU 11764193_at / Fold change /veh 11764193_at / RFU TMEM53 (11763286_at) / Fold change /veh TMEM53 (11763286_at) / RFU MAGEB2 (11727129_at) / Fold change /veh MAGEB2 (11727129_at) / RFU TMEM200A (11744735_a_at) / Fold change /veh TMEM200A (11744735_a_at) / RFU CCDC152 (11751479_a_at) / Fold change /veh CCDC152 (11751479_a_at) / RFU FAM211A (11726209_a_at) / Fold change /veh FAM211A (11726209_a_at) / RFU RGS16 (11746705_a_at) / Fold change /veh RGS16 (11746705_a_at) / RFU VCAN (11755009_s_at) / Fold change /veh VCAN (11755009_s_at) / RFU RHOB (11743442_s_at) / Fold change /veh RHOB (11743442_s_at) / RFU RGS16 (11720943_a_at) / Fold change /veh RGS16 (11720943_a_at) / RFU RGS16 (11720944_at) / Fold change /veh RGS16 (11720944_at) / RFU, VPS4B / Fold change vs veh, VPS4B / RFU, CREB1 / Fold change vs veh, CREB1 / RFU, DNAJC13 / Fold change vs veh, DNAJC13 / RFU, GNAQ / Fold change vs veh, GNAQ / RFU, CDK5R1 / Fold change vs veh, CDK5R1 / RFU, ZRANB3 / Fold change vs veh, ZRANB3 / RFU, CUL4A / Fold change vs veh, CUL4A / RFU, CCNY / Fold change vs veh, CCNY / RFU, UFL1 / Fold change vs veh, UFL1 / RFU, COG3 / Fold change vs veh, COG3 / RFU, DIAPH2 / Fold change vs veh, DIAPH2 / RFU, SKA2 / Fold change vs veh, SKA2 / RFU, AFF3 / Fold change vs veh, AFF3 / RFU, LMF1 / Fold change vs veh, LMF1 / RFU, IPO11 / Fold change vs veh, IPO11 / RFU, DFFB / Fold change vs veh, DFFB / RFU, FOXP1 / Fold change vs veh, FOXP1 / RFU, CARD8 / Fold change vs veh, CARD8 / RFU, STRN3 / Fold change vs veh, STRN3 / RFU, ADK / Fold change vs veh, ADK / RFU, RASSF2 / Fold change vs veh, RASSF2 / RFU, WIPF1 / Fold change vs veh, WIPF1 / RFU, LARP1B / Fold change vs veh, LARP1B / RFU, RASA1 / Fold change vs veh, RASA1 / RFU, RB1 / Fold change vs veh, RB1 / RFU, PPFIA1 / Fold change vs veh, PPFIA1 / RFU, MAT2A / Fold change vs veh, MAT2A / RFU, CCT5 / Fold change vs veh, CCT5 / RFU, WDR92 / Fold change vs veh, WDR92 / RFU, CUX1 / Fold change vs veh, CUX1 / RFU, TTC7A / Fold change vs veh, TTC7A / RFU, TMEM135 / Fold change vs veh, TMEM135 / RFU, DEPTOR / Fold change vs veh, DEPTOR / RFU, CPM / Fold change vs veh, CPM / RFU, DNAJB6 / Fold change vs veh, DNAJB6 / RFU, CACNA2D3 / Fold change vs veh, CACNA2D3 / RFU, DTX4 / Fold change vs veh, DTX4 / RFU, TFCP2 / Fold change vs veh, TFCP2 / RFU, GMCL1 /// GMCL1P1 / Fold change vs veh, GMCL1 /// GMCL1P1 / RFU, AEBP2 / Fold change vs veh, AEBP2 / RFU, SNHG1 /// SNORD22 /// SNORD25 /// SNORD26 /// SNORD27 /// SNORD28 /// SNORD29 /// SNORD31 / Fold change vs veh, SNHG1 /// SNORD22 /// SNORD25 /// SNORD26 /// SNORD27 /// SNORD28 /// SNORD29 /// SNORD31 / Fold change (Aza/veh), C12orf56 (ProbeSet 11735607_a_at) / Fold change (ACY-1035/veh), C12orf56 (ProbeSet 11735607_a_at) / Fold change (Aza/veh), FGFR1OP (ProbeSet 11751329_s_at) / Fold change (ACY-1035/veh), FGFR1OP (ProbeSet 11751329_s_at) / Fold change (Aza/veh), VPS36 (ProbeSet 11739960_a_at) / Fold change (ACY-1035/veh), VPS36 (ProbeSet 11739960_a_at) / RFU SYPL1 (11715823_x_at) / Fold change /veh SYPL1 (11715823_x_at) / RFU IGFBP7 (11715501_s_at) / Fold change /veh IGFBP7 (11715501_s_at) / RFU REEP3 (11722064_at) / Fold change /veh REEP3 (11722064_at) / RFU IGLL1 (11728026_x_at) / Fold change /veh IGLL1 (11728026_x_at): dose or concentration left out as unconfirmed
Conditions: ProbeSet 11755425_a_at; LIST B

Structure (SMILES): Nc1ncn([C@@H]2O[C@H](CO)[C@@H](O)[C@H]2O)c(=O)n1 [azacitidine]
- Fold change vs veh, FAM179B: 0.87
